In patent US8217035B2, “Pyrimidine derivatives used as PI-3-kinase inhibitors” (Novartis AG, priority 2006, dated 2012) one finds IC50 and EC50 data, which are given here for 19 molecules.

Structures are written as SMILES. pEC50, pIC50: −log10 of the molar value. Some results are limits rather than exact numbers.

Assay [1] deals with PI3 kinase alpha (Homo sapiens, UniProt P42336). In words: PI3K ATP depletion assay (Biological Method 1, Assay 3; KinaseGlo luminescence). In kind it is biochemical. The following applies: ATP depletion assay; read-out: PI3 Kinase Alpha, IC50. The method, boiled down:
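Compound in DMSO was mixed with 10 nM PI3 kinase and 5 μg/mL phosphatidylinositol, and the reaction was started with 2 μM ATP. It ran to about 50% ATP depletion and was stopped with KinaseGlo.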
Background: In Kinase-Glo more light means more ATP remaining.

Assay [2] deals with A2780 ovarian cancer cells. The experiment in a line: Cellular proliferation in A2780 cells, Cell Titer Glo (Biological Method 4). In kind it is cell-based. The note with it: Homo sapiens; ovarian cancer cell line A2780. The procedure, abridged: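 Viability after 72 h compound exposure (37 °C, 5% CO2) was read by Cell Titer Glo and an EC50 derived, each condition in duplicate. A2780 ovarian cells had been plated at 1,000 per well in DMEM/10% FBS at least 2 h beforehand.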

Assay [3] concerns pSer473 Akt in A2780 cells. The experiment in a line: pSer473 Akt assay to monitor PI3K pathway in A2780 cells (Biological Method 2, MSD). The following applies: Homo sapiens; inhibition of Akt phosphorylation, A2780 cells. In kind it is cell-based. On the procedure: In this method, an assay for measuring the PI3K-mediated pSer473-Akt status after treatment with representative inhibitor compounds of the invention is described.
A2780 cells were cultured in DMEM supplemented with 10% FBS. L-glutamine, sodium pyruvate, and antibiotics. Cells were plated in the same medium at a density of 15,000 cells per well into 96 well tissue culture plates, with outside wells vacant, and allowed to adhere overnight.
Test compounds supplied in DMSO were diluted further into DMSO at 500 times the desired final concentrations before dilution into culture media to 2 times the final concentrations. Equal volumes of 2× compounds were added to the cells in 96 well plates and incubated at 37° C. for one hour. The media and compounds were then removed, the plates chilled and cells lysed in a lysis buffer (150 mM NaCl, 20 mM Tris pH 7.5, 1 mM EDTA, 1 mM EGTA, 1% Triton X-100) supplemented with phosphatase and protease inhibitors. After thorough mixing, lysates were transferred to both pSer473Akt and total Akt assay plates from Meso Scale Discovery (MSD), and incubated overnight with shaking at 4° C.
The assays were read on a SECTOR Imager 6000 instrument (Meso Scale Discovery). Ratios of the signal from pSer473Akt and total Akt assays were used to correct for any variability and the percent inhibition of pSer473Akt from the total signal seen in cells treated with compound versus DMSO alone was calculated and used to determine EC50 values for each compound.

Chain of PI3 kinase alpha (P42336 whole entry): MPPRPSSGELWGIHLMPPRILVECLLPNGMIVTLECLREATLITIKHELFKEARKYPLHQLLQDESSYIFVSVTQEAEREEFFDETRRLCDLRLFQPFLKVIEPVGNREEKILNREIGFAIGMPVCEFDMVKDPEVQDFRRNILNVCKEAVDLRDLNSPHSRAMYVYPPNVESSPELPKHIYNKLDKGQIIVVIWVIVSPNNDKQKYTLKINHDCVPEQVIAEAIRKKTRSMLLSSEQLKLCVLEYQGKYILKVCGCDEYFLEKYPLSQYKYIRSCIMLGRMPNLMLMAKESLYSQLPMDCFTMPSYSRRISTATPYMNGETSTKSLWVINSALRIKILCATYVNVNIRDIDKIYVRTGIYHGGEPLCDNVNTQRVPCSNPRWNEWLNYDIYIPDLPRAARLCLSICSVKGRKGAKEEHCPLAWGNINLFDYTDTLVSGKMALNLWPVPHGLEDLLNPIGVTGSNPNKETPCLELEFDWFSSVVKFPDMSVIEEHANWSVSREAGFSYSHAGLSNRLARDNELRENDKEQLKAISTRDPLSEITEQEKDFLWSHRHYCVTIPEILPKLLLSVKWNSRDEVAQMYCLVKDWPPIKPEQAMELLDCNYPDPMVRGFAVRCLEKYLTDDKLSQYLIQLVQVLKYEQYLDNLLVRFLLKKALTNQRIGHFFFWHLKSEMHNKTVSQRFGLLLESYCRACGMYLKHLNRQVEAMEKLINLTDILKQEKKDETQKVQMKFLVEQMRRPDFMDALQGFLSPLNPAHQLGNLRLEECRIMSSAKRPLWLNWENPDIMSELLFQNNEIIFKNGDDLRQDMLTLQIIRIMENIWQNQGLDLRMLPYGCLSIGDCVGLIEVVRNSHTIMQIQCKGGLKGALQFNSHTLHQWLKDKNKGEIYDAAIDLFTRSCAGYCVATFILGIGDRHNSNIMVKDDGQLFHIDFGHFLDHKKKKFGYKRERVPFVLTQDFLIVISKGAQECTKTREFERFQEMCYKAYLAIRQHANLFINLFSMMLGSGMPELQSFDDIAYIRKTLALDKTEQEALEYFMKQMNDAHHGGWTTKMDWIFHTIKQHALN
Chain of PI3 kinase alpha (P27986 whole entry partner): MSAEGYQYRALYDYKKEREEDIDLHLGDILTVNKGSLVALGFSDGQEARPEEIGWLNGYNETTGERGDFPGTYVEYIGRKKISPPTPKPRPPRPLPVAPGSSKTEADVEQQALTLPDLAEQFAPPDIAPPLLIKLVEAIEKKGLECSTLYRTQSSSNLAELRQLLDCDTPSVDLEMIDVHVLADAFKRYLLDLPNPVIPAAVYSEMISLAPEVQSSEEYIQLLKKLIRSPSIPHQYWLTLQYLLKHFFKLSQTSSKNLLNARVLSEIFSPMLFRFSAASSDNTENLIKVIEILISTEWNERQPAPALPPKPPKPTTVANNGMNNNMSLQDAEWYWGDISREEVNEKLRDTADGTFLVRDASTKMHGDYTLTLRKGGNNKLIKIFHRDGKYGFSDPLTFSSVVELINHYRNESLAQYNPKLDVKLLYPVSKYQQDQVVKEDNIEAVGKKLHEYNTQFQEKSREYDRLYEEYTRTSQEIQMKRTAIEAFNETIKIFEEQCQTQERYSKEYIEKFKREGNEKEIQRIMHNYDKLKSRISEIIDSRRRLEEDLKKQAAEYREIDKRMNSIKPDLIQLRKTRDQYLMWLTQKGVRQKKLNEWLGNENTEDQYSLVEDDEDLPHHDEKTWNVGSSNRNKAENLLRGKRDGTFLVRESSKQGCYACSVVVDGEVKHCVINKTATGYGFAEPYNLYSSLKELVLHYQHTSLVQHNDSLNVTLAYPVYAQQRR

One may read the pIC50 as −log10 of the IC50, conventionally taken in molar units. Broadly, the pEC50 is the EC50 on a negative log10 scale, so that one unit is a factor of ten. For `Cc1cc(Nc2cc(-c3cnc(N)nc3N)nc(N3CCOCC3)n2)ccn1` [Compound 53], the negative-log IC50 (pIC50) in assay [1] is more than 6.00. The negative-log EC50 (pEC50) in assay [2] and in assay [3] was more than 6.00 throughout.

Take `COc1cccc2ncc(Nc3cc(-c4cnc(N)nc4C(F)(F)F)nc(N4CCOCC4)n3)cc12` [Compound 54]: the pIC50 in assay [1] was more than 6.00. In addition, the pEC50 in assay [2] and in assay [3] was more than 6.00 in each case.

In the case of `Nc1ncc(-c2cc(O[C@@H]3CCOC3)nc(N3CCOCC3)n2)c(=O)[nH]1` [Compound 56], the negative logarithm of the IC50 (pIC50) in assay [1] was more than 6.00. The pEC50 in assay [2] and in assay [3] was more than 6.00 in each case.

In the case of `COc1cncc(-c2cc(-c3cnc(N)nc3)nc(N3CCOCC3)n2)c1` [Compound 57], the pIC50 in assay [1] is more than 6.00. The pEC50 in assay [2] and in assay [3] was more than 6.00 in each case.

On to `CS(=O)(=O)N1CCC(Oc2cc(-c3cnc(N)[nH]c3=O)nc(N3CCOCC3)n2)CC1` [Compound 58], for which the pIC50 in assay [1] was more than 6.00. Also, the negative logarithm of the EC50 (pEC50) in assay [2] and in assay [3] was more than 6.00 each time.

For `CCN(CC)Cc1cnc(Nc2cc(-c3cnc(N)nc3N)nc(N3CCOCC3)n2)s1` [Compound 59], the negative-log IC50 (pIC50) in assay [1] is more than 6.00. Further, the negative logarithm of the EC50 (pEC50) in assay [2] and in assay [3] was more than 6.00 each time.

Consider `COc1ccc2cc(Nc3cc(-c4cnc(N)nc4)nc(N4CCOCC4)n3)cnc2c1` [Compound 60], for which the negative logarithm of the IC50 (pIC50) in assay [1] was more than 6.00. Moreover, the pEC50 in assay [2] and in assay [3] was more than 6.00 each time.

Take `CN1CCC(Oc2ccc(Nc3cc(-c4cnc(N)nc4C(F)(F)F)nc(N4CCOCC4)n3)cn2)CC1` [Compound 62]: the negative-log IC50 (pIC50) in assay [1] was more than 6.00. Moreover, the negative logarithm of the EC50 (pEC50) in assay [2] and in assay [3] was more than 6.00 in each case.

In the case of `COC(=O)N1CCC[C@@H](Oc2cc(-c3cnc(N)nc3N)nc(N3CCOCC3)n2)C1` [Compound 63], the pIC50 in assay [1] is more than 6.00. Moreover, the pEC50 in assay [2] and in assay [3] was more than 6.00 in each case.

Regarding `Nc1ncc(-c2cc(Nc3ccc(Oc4cccnc4)nc3)nc(N3CCOCC3)n2)cn1` [Compound 64], the negative logarithm of the IC50 (pIC50) in assay [1] is more than 6.00. The pEC50 in assay [2] and in assay [3] was more than 6.00 throughout.

Turning to `Nc1ncc(-c2cc(N3CCOc4ccccc43)nc(N3CCOCC3)n2)cn1` [Compound 65], the negative logarithm of the IC50 (pIC50) in assay [1] was more than 6.00. In addition, the negative-log EC50 (pEC50) in assay [2] and in assay [3] was more than 6.00 in each case.

Turning to `Nc1ncc(-c2cc(Nc3ccc4c(c3)OCCO4)nc(N3CCOCC3)n2)cn1` [Compound 67], in assay [1], the pIC50 is more than 6.00. Further, the negative-log EC50 (pEC50) in assay [2] and in assay [3] was more than 6.00 each time.

`CC(C)N1CCC(Oc2ccc(Nc3cc(-c4cnc(N)nc4N)nc(N4CCOCC4)n3)cn2)CC1` [Compound 68]: in assay [1], the negative logarithm of the IC50 (pIC50) was more than 6.00. The pEC50 in assay [2] and in assay [3] was more than 6.00 throughout.

As to `CS(=O)(=O)Nc1ncccc1-c1cc(-c2cnc(N)nc2C(F)(F)F)nc(N2CCOCC2)n1` [Compound 69], the pIC50 in assay [1] is more than 6.00. For the same molecule, the pEC50 in assay [2] and in assay [3] was more than 6.00 each time.

Take `COC(=O)N1CCC(Oc2cc(-c3cnc(N)nc3C(F)(F)F)nc(N3CCOCC3)n2)CC1` [Compound 70]: in assay [1], the pIC50 is more than 6.00. Further, the pEC50 in assay [2] and in assay [3] was more than 6.00 each time.

On to `Cc1c(Nc2ncc(C#N)s2)nc(N2CCOCC2)nc1-c1cnc(N)nc1` [Compound 71], for which the negative logarithm of the IC50 (pIC50) in assay [1] is more than 6.00. For the same molecule, the pEC50 in assay [2] and in assay [3] was more than 6.00 each time.

As for `CC(C)C(=O)N1CCC[C@H](Oc2cc(-c3cnc(N)nc3N)nc(N3CCOCC3)n2)C1` [Compound 72], in assay [1], the pIC50 was more than 6.00. The pEC50 is more than 5.00 in assay [2] and more than 6.00 in assay [3].

For `COc1ccc(Nc2cc(-c3cnc(N)nc3N)nc(N3CCOCC3)n2)cn1` [Compound 73], the negative-log IC50 (pIC50) in assay [1] is more than 6.00. Besides, the negative logarithm of the EC50 (pEC50) in assay [2] is more than 5.00; in assay [3], more than 6.00.

In the case of `CS(=O)(=O)N1CCC(Oc2cc(-c3cnc(N)nc3C(F)(F)F)nc(N3CCOCC3)n2)CC1` [Compound 74], the negative logarithm of the IC50 (pIC50) in assay [1] was more than 6.00. For the same molecule, the negative-log EC50 (pEC50) in assay [2] and in assay [3] was more than 6.00 in each case.
